Laboratory results: patent US9713616B2, “Pharmaceutical compositions comprising L-leucovorin” (Spectrum Pharmaceuticals, Inc., priority 2012, dated 2017)

Columns and labels:
Format in all cases: physicochemical
[1] = Example 4: dissolved concentration after 1 hour of sonication, then stirring at 25° C.; conditions: sonicated 1 hour, stirred at 25° C.
Procedure: L-leucovorin calcium (Merck) or racemic leucovorin calcium (Sigma) was added to water or aqueous sodium chloride (0.83%) and sonicated for 1 hour. The mixture was then stirred for an additional 19 hours 25° C. The concentration of dissolved L-leucovorin calcium or racemic leucovorin calcium was determined at 15 min., 30 min., 1 hour, or 20 hours after stirring began.

[2] = Example 1: dissolved concentration after about one hour of sonication, then stirring at 5° C.; conditions: sonicated about one hour, stirred at 5° C.
Procedure: L-leucovorin calcium (Merck) or racemic leucovorin calcium (Sigma) was added to water or aqueous sodium chloride (0.83%) and sonicated for about one hour. The mixtures were then stirred for about 20 hours at 5° C. The concentration of dissolved L-leucovorin calcium or racemic leucovorin calcium was determined at 15 min., 30 min., 1 hour, and 20 hours after sonication began.

[3] = Example 2: dissolved concentration after sonication at 40° C., then stirring at 5° C. for 20 hours; conditions: sonicated at 40° C., stirred at 5° C.
Procedure: L-leucovorin calcium (Merck) or racemic leucovorin calcium (USP) was added to water or aqueous sodium chloride (0.83%) and sonicated at 40° C. to dissolve the L-leucovorin calcium or racemic leucovorin calcium. The solutions were then stirred at 5° C. for 20 hours. The concentration of dissolved L-leucovorin calcium or racemic leucovorin calcium was determined at 2 hours and 20 hours after stirring began.

[4] = Example 6: dissolved concentration after sonication at 40° C. for one hour, stirring at 25° C., nitrogen purge and sealed vial after 2 hours; conditions: sonicated at 40° C. one hour, stirred at 25° C.
Procedure: L-leucovorin calcium (Merck) or racemic leucovorin (USP) calcium was added to water or aqueous sodium chloride (0.83%) and sonicated at 40° C. for one hour to dissolve the L-leucovorin calcium or racemic leucovorin calcium. The solutions were then stirred at 25° C. for an additional hour. After 2 hours, the solutions were purged with nitrogen and placed in a sealed vial. The mixtures were then stirred for an additional 18 hours. The concentration of dissolved L-leucovorin calcium or racemic leucovorin calcium was determined at two hours and 20 hours after sonication began.

[5] = Example 3: dissolved concentration after sonication at 40° C., stirring at 5° C., nitrogen purge and sealed vial at 2 hours; conditions: sonicated at 40° C., stirred at 5° C.
Procedure: L-leucovorin calcium (Merck) or racemic leucovorin (USP) calcium was added to water or aqueous sodium chloride (0.83%) and sonicated at 40° C. to dissolve the L-leucovorin calcium or racemic leucovorin calcium. The solutions were then stirred at 5° C. for 15 hours. At 2 hours, the solutions were purged with nitrogen gas and placed in a sealed vial. The concentration of dissolved L-leucovorin calcium or racemic leucovorin calcium was determined at two hours and 15 hours after sonication began.

[6] = Example 5: dissolved concentration after sonication at 40° C. for about half an hour, then stirring at 25° C. for 20 hours; conditions: sonicated at 40° C. about half an hour, stirred at 25° C.
Procedure: L-leucovorin calcium (Merck) or racemic leucovorin calcium (USP) was added to water or aqueous sodium chloride (0.83%) and sonicated at 40° C. for about half an hour. The mixture was then stirred at 25° C. for 20 hours. The concentration of dissolved L-leucovorin calcium or racemic leucovorin calcium was determined at two hours and 20 hours.

| SMILES | Assay (concentration of dissolved compound) ([1]; H2O, 15 min.) | Assay (concentration of dissolved compound) ([1]; H2O, 30 min.) | Assay (concentration of dissolved compound) ([1]; H2O, 1 hr) | Assay (concentration of dissolved compound) ([1]; H2O, 20 hrs) | Assay (concentration of dissolved compound) ([1]; NaCl (0.83%), 15 min.) | Assay (concentration of dissolved compound) ([1]; NaCl (0.83%), 30 min.) | Assay (concentration of dissolved compound) ([1]; NaCl (0.83%), 1 hr) | Assay (concentration of dissolved compound) ([1]; NaCl (0.83%), 20 hrs) | Assay (concentration of dissolved compound) ([2]; H2O, 15 min.) | Assay (concentration of dissolved compound) ([2]; H2O, 30 min.) | Assay (concentration of dissolved compound) ([2]; H2O, 1 hr) | Assay (concentration of dissolved compound) ([2]; H2O, 20 hrs) | Assay (concentration of dissolved compound) ([2]; NaCl (0.83%), 15 min.) | Assay (concentration of dissolved compound) ([2]; NaCl (0.83%), 30 min.) | Assay (concentration of dissolved compound) ([2]; NaCl (0.83%), 1 hr) | Assay (concentration of dissolved compound) ([2]; NaCl (0.83%), 20 hrs) | Assay (concentration of dissolved compound) ([3]; H2O, 20 hrs) | Assay (concentration of dissolved compound) ([3]; NaCl (0.83%), 20 hrs) | Assay (concentration of dissolved compound) ([4]; H2O, 2 hrs) | Assay (concentration of dissolved compound) ([4]; H2O, 20 hrs) | also measured |
| --- | --- | --- | --- | --- | --- | --- | --- | --- | --- | --- | --- | --- | --- | --- | --- | --- | --- | --- | --- | --- | --- |
| Nc1nc(=O)c2c([nH]1)NCC(CNc1ccc(C(=O)N[C@@H](CCC(=O)[O-])C(=O)[O-])cc1)N2C=O.[Ca+2] (mixture of isomers) [Sigma Leucovorin Calcium, racemic leucovorin calcium] | 52.9 mg/mL | 53.3 mg/mL | 50.1 mg/mL | 9.0 mg/mL | 42.1 mg/mL | 41.9 mg/mL | 39.6 mg/mL | 14.2 mg/mL | 16.7 mg/mL | 22.0 mg/mL | 15.8 mg/mL | 3.3 mg/mL | 22.6 mg/mL | 22.9 mg/mL | 23.2 mg/mL | 7.4 mg/mL | – | – | – | – | – |
| Nc1nc(=O)c2c([nH]1)NCC(CNc1ccc(C(=O)N[C@@H](CCC(=O)[O-])C(=O)[O-])cc1)N2C=O.[Ca+2] (mixture of isomers) [USP Leucovorin Calcium, racemic leucovorin calcium] | – | – | – | – | – | – | – | – | – | – | – | – | – | – | – | – | 4.2 mg/mL | 7.2 mg/mL | 10.1 mg/mL | 10.8 mg/mL | Assay (concentration of dissolved compound) ([4]; NaCl (0.83%), 2 hrs): 16.1 mg/mL; Assay (concentration of dissolved compound) ([4]; NaCl (0.83%), 20 hrs): 17.1 mg/mL; Assay (concentration of dissolved compound) ([5]; H2O, 2 hrs): 3.6 mg/mL; Assay (concentration of dissolved compound) ([5]; H2O, 15 hrs): 3.8 mg/mL; Assay (concentration of dissolved compound) ([5]; NaCl (0.83%), 2 hrs): 8.4 mg/mL; Assay (concentration of dissolved compound) ([5]; NaCl (0.83%), 15 hrs): 8.6 mg/mL; Assay (concentration of dissolved compound) ([6]; H2O, 20 hrs): 13.4 mg/mL; Assay (concentration of dissolved compound) ([6]; NaCl (0.83%), 20 hrs): 17.4 mg/mL |
| Nc1nc(=O)c2c([nH]1)NCC(CNc1ccc(C(=O)NC(CCC(=O)O)C(=O)O)cc1)N2C=O [L-Leucovorin, L-leucovorin calcium] | 14.9 mg/mL | 15.1 mg/mL | 16.1 mg/mL | 23.6 mg/mL | 20.2 mg/mL | 20.4 mg/mL | 21.6 mg/mL | 32.4 mg/mL | 7.5 mg/mL | 8.4 mg/mL | 8.0 mg/mL | 11.9 mg/mL | 9.6 mg/mL | 10.0 mg/mL | 13.4 mg/mL | 17.4 mg/mL | 26.2 mg/mL | 39.6 mg/mL | 40.4 mg/mL | 42.3 mg/mL | Assay (concentration of dissolved compound) ([3]; H2O, 2 hrs): 31.9 mg/mL; Assay (concentration of dissolved compound) ([3]; NaCl (0.83%), 2 hrs): 42.3 mg/mL; Assay (concentration of dissolved compound) ([4]; NaCl (0.83%), 2 hrs): 49.2 mg/mL; Assay (concentration of dissolved compound) ([4]; NaCl (0.83%), 20 hrs): 53.1 mg/mL; Assay (concentration of dissolved compound) ([5]; H2O, 2 hrs): 40.4 mg/mL; Assay (concentration of dissolved compound) ([5]; H2O, 15 hrs): 21.2 mg/mL; Assay (concentration of dissolved compound) ([5]; NaCl (0.83%), 2 hrs): 49.2 mg/mL; Assay (concentration of dissolved compound) ([5]; NaCl (0.83%), 15 hrs): 35.6 mg/mL; Assay (concentration of dissolved compound) ([6]; H2O, 2 hrs): 31.9 mg/mL; Assay (concentration of dissolved compound) ([6]; H2O, 20 hrs): 31.1 mg/mL; Assay (concentration of dissolved compound) ([6]; NaCl (0.83%), 2 hrs): 42.3 mg/mL; Assay (concentration of dissolved compound) ([6]; NaCl (0.83%), 20 hrs): 42.1 mg/mL |
